{
  "source": "patent US11083714B2",
  "about": "“Selective anti-cancer agent effective for prevention and treatment” (Molecular International Research, Inc., priority 2018, dated 2021)",
  "key": {"OVCAR-5, SHIN-3, OVCAR-8": {"test_system": "OVCAR-5, SHIN-3, OVCAR-8", "test": "MTT cell viability, ovarian cancer cell lines", "assay_type": "cell-based, human", "details": "48 hr", "procedure": "FIG. 7. Dose-response curves for cell viability of human ovarian cancer cell lines OVCAR-5 (triangles), SHIN-3 (squares), and OVCAR-8 (lozenges) exposed to de-ethylflavopereirine. Cells were cultured in the presence of increasing concentrations of the compound for 48 hr and cell viability was determined by MTT assay. MRC-5 (crosses), an immortalized, normal human […] cell line, was used as a control.\nDe-ethylflavopereirine was tested for its activity against ovarian, pancreatic, brain, and colon cancer cell lines. […] Cytotoxicity is assayed by reducing a yellow tetrazolium dye, 3-(4,5-dimethylthiazol-2-yl)-2,5-diphenyltetrazolium bromide (MTT), to insoluble purple formazan. The MTT assay is a colorimetric assay for determining the number of viable cells."}, "PANC-1 cells": {"test_system": "PANC-1 cells", "test": "Tumor formation and growth after inoculation of pretreated PANC-1 cells (FIG. 26)", "assay_type": "in vivo, mice", "procedure": "FIG. 26. Effect of de-ethylflavopereirine on pancreatic cancer formation and growth. […] In the control group (top line of left graph), 86.67% (13/15) of the untreated mice formed tumors. Compound 13-9-1 (10 μM) decreased the rate to 80% (4/5); there was no effect on the time of tumor formation (bottom line of left graph). […] In the control group (top line of left graph), 80% (12/15) of the untreated mice formed tumors. Compound 13-9-1 (10 μM) decreased the tumor formation rate to 60% (3/5); this indicated reduction in tumor formation initiated by pancreatic cancer stem cells (bottom line of left graph). […] In FIG. 26C, after 2×10^4 PANC-1 cells were inoculated, 20% of the mice formed tumors in both the control group (3/15) and the treated group (1/5) at 38 days of observation.\nIn vivo, cancer stem cells are the primary source of tumor formation and growth. Thus, the rates of tumor formation and growth are indicators of cancer stem cell activity. When animals are inoculated with limited numbers of cancer cells, rates of tumor formation and growth can be accurately measured. It can then be determined whether a prospective agent slows the formation and growth rates of tumors, which is an indication of whether it acts against cancer stem cells. PANC-1 cancer cells were grown in suspension and pretreated with de-ethylflavopereirine at 10 μM concentration before inoculation into mice. As a negative control, PANC-1 cancer cells were not pretreated with the compound. Following inoculation, the rates of tumor formation and growth were measured. • 1) After 10^6 PANC-1 cells were inoculated, tumors formed in 87% of the mice in the control group and 80% of the mice in the treated group. […] De-ethylflavopereirine reduced tumor formation rate to 60%, indicating inhibition of pancreatic cancer stem cells. […] De-Ethylflavopereirine Suppresses PANC-1 Tumor Formation In Vivo: Anti-Cancer Stem Cell Activity"}, "[1]": {"details": "1×10^6 PANC-1 cells pretreated at 10 μM"}, "[2]": {"details": "2×10^5 PANC-1 cells pretreated at 10 μM"}},
  "data": [
    {"smiles": "c1ccc2c(c1)[nH]c1c2cc[n+]2ccccc12", "note": "[Compound 13-9-1, 12H-indolo[2,3-a]quinolizin-5-ium]", "values": [
      {"measurement": "cell viability", "setting": "OVCAR-5, SHIN-3, OVCAR-8", "value": "dose-dependent decrease in cancer cell viability"},
      {"measurement": "growth of tumors formed", "setting": "PANC-1 cells; [1]", "value": "reduced the growth of tumors"},
      {"measurement": "time of tumor formation", "setting": "PANC-1 cells; [1]", "value": "no effect"},
      {"measurement": "tumor formation rate (mice that formed tumors)", "setting": "PANC-1 cells; [1]", "value": 80, "unit": "%"},
      {"measurement": "growth of tumors formed", "setting": "PANC-1 cells; 1×10^6 PANC-1 cells pretreated at 10 μM, listed as De-ethylflavopereirine", "value": "significantly inhibited the growth"},
      {"measurement": "growth of tumors formed", "setting": "PANC-1 cells; 2×10^4 PANC-1 cells pretreated at 10 μM", "value": "not significantly different"},
      {"measurement": "tumor formation rate (mice that formed tumors)", "setting": "PANC-1 cells; 2×10^4 PANC-1 cells pretreated at 10 μM, 38 days", "value": 20, "unit": "%"},
      {"measurement": "growth of tumors formed", "setting": "PANC-1 cells; [2]", "value": "significantly reduced tumor growth"},
      {"measurement": "tumor formation rate (mice that formed tumors)", "setting": "PANC-1 cells; [2]", "value": 60, "unit": "%"},
      {"measurement": "growth of tumors formed", "setting": "PANC-1 cells; 2×10^5 PANC-1 cells pretreated at 10 μM, listed as De-ethylflavopereirine", "value": "slowed the growth rate"}
    ]}
  ]
}
